Data on six compounds can be found in patent US8133886B2, “Heterobicyclic carboxamides as inhibitors for kinases” (Novartis AG, priority 2006, dated 2012).

`COc1ccc(-n2nc(C(C)(C)C)cc2NC(=O)c2cccc3cc(Oc4cc(NCCN(C)C)ncn4)ccc23)cc1` [Example 19, 6-[6-(2-Dimethylamino-ethylamino)-pyrimidin-4-yloxy]-naphtalene-1-carboxylic acid [5-tert-butyl-2-(4-methoxy-phenyl)-2H-pyrazol-3-yl]-amide] yielded a melting point of 116 to 117 °C.
As for `COCc1cc(Oc2ccc3c(C(=O)Nc4ccc(C)c(C(F)(F)F)c4)cccc3c2)ncn1` [Example 18C, 6-(6-Methoxymethyl-pyrimidin-4-yloxy)-naphthalene-1-carboxylic acid (4-methyl-3-trifluoromethyl-phenyl)-amide], the figure is 188 °C; as for `CS(=O)(=O)Nc1nccc(Oc2ccc3c(C(=O)Nc4ccc(F)c(C(F)(F)F)c4)cccc3c2)n1` [Example 13, 6-(2-Methanesulfonylamino-pyrimidin-4-yloxy)-naphthalene-1-carboxylic acid (4-fluoro-3-trifluoromethyl-Phenyl)-amide], 246 °C.
As for `CCOC(=O)c1cc(Oc2ccc3c(C(=O)Nc4ccc(C(C)(C)C)cc4)cccc3c2)ncn1` [Example 18], the figure is 177 to 178 °C; as for `CC(C)(C)c1ccc(NC(=O)c2cccc3cc(Oc4cc(CO)ncn4)ccc23)cc1` [Example 18A, 6-(6-Hydroxymethyl-pyrimidin-4-yloxy)-naphthalene-1-carboxylic acid (4-tert-butyl-phenyl)-amide], 202 to 203 °C; as for `O=C(Nc1ccc(Cl)c(C(F)(F)F)c1)N1COc2cc(Oc3ccnc(Cl)n3)ccc21` [Example 1, 6-(2-Chloro-pyrimidin-4-yloxy)-benzooxazole-3-carboxylic acid (4-chloro-3-trifluoromethyl-phenyl)-amide], 140 to 142 °C.
